Like-named read-outs stand apart in the source and are kept apart here.
Legend:
Assay type in all cases: in vivo
Plutella xylostella = assay: Insecticidal activity against Plutella xylostella, airbrush spray on cabbage leaf discs; conditions: foliar, 72 h; for pest or weed control at 5 µg/mL: 5 mg/L, Table 5, read-out: Lethality rate (%, 3 days after the treatment) 5 mg/L
Protocol: (§1) After being dissolved in a mixed solvent of acetone/methanol (1:1), the test compound was diluted with water containing 0.1% (wt) Tween 80 to the desired concentration.
(§2) With Leucania separata, Plutella xylostella, and Chilo suppressalis as targets, airbrush spray method was used for the determination of the insecticidal activity.
(§3) Determination method: Cabbage leaves were punched into leaf discs with a diameter of 2 cm with a puncher, and Airbrush spray treatment was carried out at a pressure of 10 psi (approximately 0.7 kg/cm^2) on the front and back sides of each leaf disc, with a spray volume of the compound to be tested of 0.5 ml. After drying in the shade, 10 of 3rd instar larvae were introduced for each treatment, and each treatment was repeated 3 times for. After the treatment, it was placed in an observation room at 25° C. and a relative humidity of 60-70%, and 3 days after the treatment, the number of surviving insects was investigated, and the mortality rate was calculated.

Chilo suppressalis = assay: Insecticidal activity against Chilo suppressalis, sprayed Oryza sativa seedlings/stalks; conditions: for Lethality rate (%, 3 days after the treatment) 1 mg/L / Lethality rate (%, 3 days after the treatment) 10 mg/L / Lethality rate (%, 3 days after the treatment) 0.5 mg/L: parallel comparison test, Table 6; for pest or weed control at 0.25 µg/mL / pest or weed control at 0.5 µg/mL / pest or weed control at 1 µg/mL: Chilo suppressalis, 72 h, 3 days after the treatment, 3rd instar larvae, read-out: lethality rate against Chilo suppressalis; for pest or weed control at 0.25 µg/mL: dose 0.25 mg/L; for pest or weed control at 0.5 µg/mL: dose 0.5 mg/L; for pest or weed control at 1 µg/mL: dose 1 mg/L
Protocol: as §1, §2
Determination method: 1) Preparation of Oryza sativa seedlings: Oryza sativa was cultivated in a constant temperature room (a temperature of 26-28V, a relative humidity of about 60-80%, and a light illumination of 16 hL:8 hD) in a small plastic cup with a diameter of 4.5 cm and a height of 4 cm, and when the Oryza sativa grew up to the 4-5 leaf stage, robust and consistent Oryza sativa seedlings were selected for chemical treatment, and 3 repetitions were performed for each treatment. 2) Preparation for test insects: Chilo suppressalis at 3rd instar larvae were raised continuously indoors. 3) The Oryza sativa stems were sprayed and insects were introduced. Spraying was performed uniformly on the whole plant of the Oryza sativa seedlings, with 15 ml of compound solution for each treatment. The blank control was treated first, and then the above operations were repeated in the order of the test concentration from low to high. After the Oryza sativa seedlings were sprayed, they were placed in a cool place to dry the liquid, and about 5 cm of stalks at the base of the stems were cut and fed to the test insects. A glass petri dish with a diameter of 90 mm was placed with filter paper at the bottom of the dish, and then was moisturized by adding water. After that, about 5 rice stalks and 10 larvae were placed in each dish, and the petri dish was sealed with a non-woven fabric and placed in a constant temperature room for cultivation. The number of remaining live insects was investigated 3 days after the treatment.

Leucania separata = assay: Insecticidal activity against Leucania separata, airbrush spray on corn leaf sections; conditions: Mythimna separata, 72 h; dose 0.05 mg/L, 3 days after the treatment, 3rd instar larvae; read-out: lethality rate against Leucania separata
Protocol: as §1, §2
as §3, with “Corn” for “Cabbage”, “cut” for “punched”, “into” for “into leaf discs with a diameter of”, “leaf sections,” for “with a puncher,”, “section,” for “disc,”, “times.” for “times for.”

[1] = 0.5 mg/L, parallel comparison test, Table 5, read-out: Lethality rate (%, 3 days after the treatment) 0.5 mg/L
[2] = 1 mg/L, parallel comparison test, Table 5, read-out: Lethality rate (%, 3 days after the treatment) 1 mg/L
[3] = dose 0.05 mg/L, 3 days after the treatment, 3rd instar larvae, read-out: lethality rate against Plutella xylostella
[4] = dose 0.5 mg/L, 3 days after the treatment, 3rd instar larvae, read-out: lethality rate against Plutella xylostella
[5] = dose 1 mg/L, 3 days after the treatment, 3rd instar larvae, read-out: lethality rate against Plutella xylostella
[6] = 0.05 mg/L, parallel comparison test, Table 5, read-out: Lethality rate (%, 3 days after the treatment) 0.05 mg/L

SMILES	pest or weed control at 0.5 µg/mL (Plutella xylostella; [1]) [%]	pest or weed control at 1 µg/mL (Plutella xylostella; [2]) [%]	pest or weed control at 5 µg/mL (Plutella xylostella; parallel comparison test) [%]	pest or weed control at 1 µg/mL (Plutella xylostella; [5]) [%]	pest or weed control at 1 µg/mL (Chilo suppressalis) [%]	pest or weed control at 0.05 µg/mL (Leucania separata) [%]	pest or weed control at 0.05 µg/mL (Plutella xylostella; [6]) [%]	further results
N#CCCN(C(=O)c1cccnc1)c1cccc(C(=O)Nc2c(Br)cc(C(F)(C(F)(F)F)C(F)(F)F)cc2Br)c1F [Compound 1-2]	0	30	90	–	–	–	–	Lethality rate (%, 3 days after the treatment) 1 mg/L (Chilo suppressalis): 0%; Lethality rate (%, 3 days after the treatment) 10 mg/L (Chilo suppressalis): 0%
N#CCN(C(=O)c1ccc(F)nc1)c1cccc(C(=O)Nc2c(Br)cc(C(F)(C(F)(F)F)C(F)(F)F)cc2C(F)(F)F)c1F [Compound 9]	–	–	–	≥ 90	≥ 90	≥ 90	–	pest or weed control at 0.05 µg/mL (Plutella xylostella; [3]): ≥ 90%; pest or weed control at 0.5 µg/mL (Plutella xylostella; [4]): ≥ 90%; pest or weed control at 0.25 µg/mL (Chilo suppressalis): ≥ 90%; pest or weed control at 0.5 µg/mL (Chilo suppressalis): ≥ 90%
N#CCCN(C(=O)c1cccnc1)c1cccc(C(=O)Nc2c(Br)cc(C(F)(C(F)(F)F)C(F)(F)F)cc2C(F)(F)F)c1F [Compound 2-1]	20	60	100	–	–	–	0	–
N#CCCCN(C(=O)c1ccc(F)nc1)c1cccc(C(=O)Nc2c(Br)cc(C(F)(C(F)(F)F)C(F)(F)F)cc2Br)c1F [Compound 3]	–	–	–	≥ 90	≥ 90	≥ 90	–	–
N#CCCN(C(=O)c1ccncc1)c1cccc(C(=O)Nc2c(Br)cc(C(F)(C(F)(F)F)C(F)(F)F)cc2Br)c1F [Compound 1-3]	13.3	76.7	100	–	–	–	0	–
N#CCN(C(=O)c1ccc(F)nc1)c1cccc(C(=O)Nc2c(Br)cc(C(F)(C(F)(F)F)C(F)(F)F)cc2I)c1F [Compound 5]	–	–	–	≥ 90	≥ 90	≥ 90	–	–
N#CCN(C(=O)c1ccc(C(F)(F)F)nc1)c1cccc(C(=O)Nc2c(Br)cc(C(F)(C(F)(F)F)C(F)(F)F)cc2Br)c1F [Compound 17]	–	–	–	≥ 90	≥ 90	≥ 90	–	–
N#CCCCCN(C(=O)c1ccc(C(F)(F)F)nc1)c1cccc(C(=O)Nc2c(Br)cc(C(F)(C(F)(F)F)C(F)(F)F)cc2C(F)(F)F)c1F [Compound 28]	–	–	–	≥ 90	≥ 90	≥ 90	–	pest or weed control at 0.5 µg/mL (Plutella xylostella; [4]): ≥ 90%; pest or weed control at 0.5 µg/mL (Chilo suppressalis): ≥ 90%
N#CCCN(C(=O)c1ccc(Cl)nc1)c1cccc(C(=O)Nc2c(Br)cc(C(F)(C(F)(F)F)C(F)(F)F)cc2Br)c1F [Compound 1-1]	6.67	50	93.3	–	–	–	–	–
N#CCCN(C(=O)c1ccccn1)c1cccc(C(=O)Nc2c(Br)cc(C(F)(C(F)(F)F)C(F)(F)F)cc2Br)c1F [Compound 1-4]	–	10	60	–	–	–	–	–
N#CCCN(C(=O)c1ccc(F)cn1)c1cccc(C(=O)Nc2c(Br)cc(C(F)(C(F)(F)F)C(F)(F)F)cc2Br)c1F [Compound 1-5]	33.3	60	83.3	–	–	–	0	–
N#CCCCN(C(=O)c1ccc(F)nc1)c1cccc(C(=O)Nc2c(Br)cc(C(F)(C(F)(F)F)C(F)(F)F)cc2C(F)(F)F)c1F [Compound 11]	–	–	–	≥ 90	≥ 90	≥ 90	–	pest or weed control at 0.05 µg/mL (Plutella xylostella; [3]): ≥ 90%; pest or weed control at 0.5 µg/mL (Plutella xylostella; [4]): ≥ 90%; pest or weed control at 0.25 µg/mL (Chilo suppressalis): ≥ 90%; pest or weed control at 0.5 µg/mL (Chilo suppressalis): ≥ 90%
N#CCCN(C(=O)c1ccc(F)nc1)c1cccc(C(=O)Nc2c(Br)cc(C(F)(C(F)(F)F)C(F)(F)F)cc2C(F)(F)F)c1F [Compound 10]	100	100	100	≥ 90	≥ 90	≥ 90	100	pest or weed control at 0.05 µg/mL (Plutella xylostella; [3]): ≥ 90%; pest or weed control at 0.5 µg/mL (Plutella xylostella; [4]): ≥ 90%; Lethality rate (%, 3 days after the treatment) 0.5 mg/L (Chilo suppressalis): 100%; Lethality rate (%, 3 days after the treatment) 1 mg/L (Chilo suppressalis): 100%; Lethality rate (%, 3 days after the treatment) 10 mg/L (Chilo suppressalis): 100%; pest or weed control at 0.25 µg/mL (Chilo suppressalis): ≥ 90%; pest or weed control at 0.5 µg/mL (Chilo suppressalis): ≥ 90%
N#CCCN(C(=O)c1cnc(F)cn1)c1cccc(C(=O)Nc2c(Br)cc(C(F)(C(F)(F)F)C(F)(F)F)cc2C(F)(F)F)c1F [Compound 2-6]	60	90	100	–	–	–	20	–
N#CCCN(C(=O)c1ccccn1)c1cccc(C(=O)Nc2c(Br)cc(C(F)(C(F)(F)F)C(F)(F)F)cc2C(F)(F)F)c1F [Compound 2-3]	10	40	100	–	–	–	0	–
N#CCCN(C(=O)c1cnc(F)cn1)c1cccc(C(=O)Nc2c(Br)cc(C(F)(C(F)(F)F)C(F)(F)F)cc2Br)c1F [Compound 1-6]	16.7	60	100	–	–	–	0	–
N#CCCN(C(=O)c1cnccn1)c1cccc(C(=O)Nc2c(Br)cc(C(F)(C(F)(F)F)C(F)(F)F)cc2C(F)(F)F)c1F [Compound 2-5]	23.3	50	100	–	–	–	0	Lethality rate (%, 3 days after the treatment) 0.5 mg/L (Chilo suppressalis): 0%; Lethality rate (%, 3 days after the treatment) 1 mg/L (Chilo suppressalis): 23.33%; Lethality rate (%, 3 days after the treatment) 10 mg/L (Chilo suppressalis): 70%
N#CCCN(C(=O)c1ccc(F)cn1)c1cccc(C(=O)Nc2c(Br)cc(C(F)(C(F)(F)F)C(F)(F)F)cc2C(F)(F)F)c1F [Compound 2-4]	63.3	90	100	–	–	–	33.3	–
N#CCCN(C(=O)c1cnccn1)c1cccc(C(=O)Nc2c(Br)cc(C(F)(C(F)(F)F)C(F)(F)F)cc2Br)c1F [CK1, reference compound]	–	0	66.7	–	–	–	–	Lethality rate (%, 3 days after the treatment) 1 mg/L (Chilo suppressalis): 0%; Lethality rate (%, 3 days after the treatment) 10 mg/L (Chilo suppressalis): 13.33%
N#CCCN(C(=O)c1cnc(F)nc1)c1cccc(C(=O)Nc2c(Br)cc(C(F)(C(F)(F)F)C(F)(F)F)cc2C(F)(F)F)c1F [Compound 2-7]	53.3	96.7	100	–	–	–	0	–
N#CCCN(C(=O)c1ccncc1)c1cccc(C(=O)Nc2c(Br)cc(C(F)(C(F)(F)F)C(F)(F)F)cc2C(F)(F)F)c1F [Compound 2-2]	30	93.3	100	–	–	–	0	–
N#CCCN(C(=O)c1cnc(F)nc1)c1cccc(C(=O)Nc2c(Br)cc(C(F)(C(F)(F)F)C(F)(F)F)cc2Br)c1F [Compound 1-7]	20	73.3	100	–	–	–	0	–

— patent US12454510B2, “Isophthalamide compound and use thereof” (METISA BIOTECHNOLOGY CO., LTD, priority 2019, dated 2025)
